Test: Storage of purified zeaxanthin powder for roughly six months unprotected, chiral column chromatography analysis
Assay type: physicochemical
Conditions: relatively unprotected, normal refrigeration, no anti-oxidants, no protection from atmospheric oxygen, fresh preparation at least 98% pure
Excerpt: After roughly six months of storage in a relatively unprotected state (usually under normal refrigeration with moderately frequent removal; without containing any anti-oxidants, and without taking any precautions to prevent contact by atmospheric oxygen), a sample of the zeaxanthin preparation was sent for stereoisomeric analysis to Prof.

SMILES: CC1=C(/C=C/C(C)=C/C=C/C(C)=C/C=C/C=C(C)/C=C/C=C(C)/C=C/C2=C(C)C[C@@H](O)CC2(C)C)C(C)(C)C[C@H](O)C1 [Zeaxanthin, zeaxanthin]
- Zeaxanthin content of preparation after storage: 92%

Source: patent USRE38009E1, “Zeaxanthin formulations for human ingestion” (Zeavision LLC, priority 1995, dated 2003)
